Results on 1 molecule are retold here after patent publication US20250236892A1, “Inhibition of NHEJ, MMEJ, and 53BP1 Promotes High Levels of HDR” (Integrated DNA Technologies, Inc., priority 2024, published 2025).

The subject of assay [1] is HEK293 cells. Description: HDR insertion of a 6-nt EcoRI sequence at SpCas9 RNP induced DSBs with ssDNA donor, repair events measured by NGS. The assay is classed as cell-based. On the procedure: FIG. 1 depicts inhibition of NHEJ, MMEJ, and 53BP1 leads to high levels of HDR at SpCas9 induced DSBs. HEK293 cells were treated with Cas9 RNP (2 μM) targeting 5 different sites (FIG. 1A: AADACL3; FIG. 1B: ANKRD50; FIG. 1C: ABCD4: FIG. 1D: AR; FIG. 1E: AKAP6) in the genome alongside ssDNA donor template with or without Ubv-A protein (25 μM). Cells were then plated in media containing no DMSO, DMSO control, ART, V2, or ART+V2 for 24 hours before exchanging for fresh media (see Methods for concentrations). The graphs show the percent of each repair event under each condition measured by NGS with error bars indicating SD from three replicates. Likely MMEJ deletions are determined based on the presence of microhomology of two nucleotides or greater at the ends of the deletion.
For HDR using ssDNA templates in HEK293 cells genome editing was mediated via IDT Alt-R Cas9 ribonucleoprotein, IDT Alt-R AsCas12a Ultra, or EURECA-V (a ErCas12a variant) (RNP) complexes delivered by Lonza nucleofection in concert with single-stranded oligodeoxynucleotide (ssODN) HDR repair templates. The specific repair event was the insertion of a 6-nt EcoRI sequence (5′-GAATTC-3′) at either the Cas9, AsCas12a, or ErCas12a cut site. The sgRNAs for Cas9 and crRNAs for AsCas12a corresponding to the protospacer sequences listed in Table 2 were ordered from IDT (Table 2). The HDR donor templates for Cas9 editing contain 40-nt homology arms (HA) flanking a 6 nt EcoR1 cut site insert. The HDR donor templates for AsCas12a were similar except for slightly different homology arm lengths (40 nt 5′ HA and 45 nt 3′ HA)^66. The HDR donor sequences listed in Table 3 were ordered from IDT as Alt-R HDR donor oligos (Table 3). The repair templates are homologous to the non-targeting strand of dsDNA, where targeting/non-targeting is defined with respect to the guide RNA sequence and the presence of the NGG/TTTV PAM sequence identifying the non-target strand. […]

The subject of assay [2] is HEK293 cells. Briefly: CAR knock-in at the TRAC locus with dsDNA Alt-R HDR donor block, PCR and Fragment Analyzer. The assay is classed as cell-based. As to conditions: enhancer used alone; ART558 10 μM, V2 1 μM, Ubv-A protein 25 μM, Ubv-A mRNA 25 nM; Cas9 RNP or Cas9 mRNA. On the procedure:
FIG. 3A depicts percent CAR knock-in (KI) at the TRAC locus in HEK293 cells treated with 1 μg dsDNA Alt-R HDR donor block, 2 μM Cas9 RNP, and either 25 μM tagless Ubv-A protein or 25 nM Ubv-A mRNA or no Ubv-A and incubated in media containing DMSO (no enhancer), MMEJ inhibitor ART558 (ART, 10 μM), NHEJ inhibitor Alt-R HDR enhancer V2 (V2, 1 μM), or both ART558 and V2. Percent KI was calculated using PCR followed by analysis using an Agilent Fragment Analyzer and data processing using PROSize 3.0 software to calculate the relative molar concentrations between wild-type and edited products. Error bars indicate SD, n=3. […]
HEK293 cells were harvested and resuspended in SF Cell Line Nucleofector Solution (Lonza, V4SC-2096) at a concentration of approximately 16,500 cells/μl and 18 μl of this cell suspension was used for each nucleofection. […] To quantify knock-in percentages, genomic DNA flanking the sgRNA target site was amplified by PCR, PCR products were separated on a Fragment Analyzer (Agilent Technologies), and the percentage of edited and unedited alleles was calculated using PROSize 3.0 software.
Recent publications have shown that inhibition of MMEJ through inhibition of DNA polymerase theta using small molecule inhibitors increases the rate of HDR and reduces undesired edits^16,27. […] Genomic DNA was isolated approximately 48 hours after delivery and editing was analyzed by NGS. […]

Consider `Cc1cccc(N(C)C(=O)[C@@H]2[C@H](O)CCN2c2nc(C)cc(C(F)(F)F)c2C#N)c1` [ART558, reference compound], for which the HDR entry in the assay on HEK293 cells [1] (10 μM ART558 alone in media 24 hours, 2 μM Cas9 RNP, 2 μM ssDNA, 5 sites) was “minimal boost in HDR”. Also, in the assay with HEK293 cells [1] (10 μM ART558 alone, AKAP6 site, highest level of likely MMEJ repair events in media only condition), the “HDR, site with largest increase” value was “AKAP6”. Moreover, in the assay on HEK293 cells [1] (10 μM ART558 in combination with 1 μM V2, compared with ART558 plus Ubv-A), the “rates of HDR and likely MMEJ events” value is reported as “the effect is less pronounced”. Further, the “HDR (CAR knock-in)” value with HEK293 cells [2] is listed as “minimal effect on HDR”.
